This note sets out measurements from patent US6635622B2, “Glycolipid derivative” (Kotobuki Pharmaceutical Co., Ltd., priority 2000, dated 2003).

The subject of test [1] is pancreatic lymphocyte of mouse. As to the kind of experiment: Lymphocyte mixed culture reaction (3H-thymidine uptake, DNA synthesis). Format: cell-based, BALB/C mouse. Conditions: concentration 1 ng/mL; cultured 3 days, 3H-TdR uptake 6 hours. The method, then: Experiment 1: Lymphocyte mixed culture reaction.
The pancreatic cells of BALB/C mouse were regulated to a concentration of 2×10^6 cells/ml with a culture medium of 10% FCS RPMI 1640, respectively. These cells (100 ul/well) and a sample (10 ul/well) were plated in a 96 well round-bottomed plate and cultured for 3 days under the condition of 37° C. and 5% CO2. Then, 3H-thymidine (3H-TdR) was added in a dose of 0.5 uCi/well. After 6 hours, the cells were harvested and subjected to the measurement of the uptake of 3H-TdR by a liquid scintillation counter. Thus, the DNA synthesis of pancreatic lymphocyte of mouse […].

Another test concerns B16 mouse melanoma cells. Put plainly: Tumor metastasis inhibitory activity against B16 mouse melanoma (lung nodules). The class given is in vivo, C57BL/6 mouse. Conditions: p.o., lung surface nodules 14 days after B16 injection, vs control.

Consider `CCCCCCCCCCCCCCCCCCCCCCCCCC(=O)NC(CC[C@H]1OC(CO)[C@H](O)C(O)C1O)C(O)C(O)CCCCCCCCCCCCCC` (stereo partly drawn) [Compound 1, (3′S,4′S,5′R)-3′-N-Hexacosanoylamino-4′,5′-dihydroxy-nonadecane-α-C-D-galactopyranoside], for which, in test [1], the “Increase of DNA synthesis (%)” value came out at 54.6%. For the same compound, in the test with B16 mouse melanoma cells (dose 0.001 mg/kg), the “Inhibition of metastasis (%)” value is 65.3%.
For the compound `CCCCCCCCCCCCCCCCCCCCCCCCCC(=O)NC(CS[C@H]1OC(CO)[C@H](O)C(O)C1O)C(O)C(O)CCCCCCCCCCCCCC` (stereo partly drawn) [Compound 8, (2′S,3′S,4′R)-3′,4′-Dihydroxy-2′-N-hexacosanoylamino-octadecane-1′-thio-yl-α-C-D-galactopyranoside], in test [1], the “Increase of DNA synthesis (%)” value was 35.4%. For the same compound, the “Inhibition of metastasis (%)” value with B16 mouse melanoma cells (dose 1 mg/kg) is on record as 80.8%.
